From the supplement of paper PMC10307832

What was measured:
Assay in all cases: relative viability (nuclei count vs DMSO), 5 days (fraction); higher = more cells survive
Ruxolitinib + Decitabine = compound: N#CC[C@H](C1CCCC1)n1cc(-c2ncnc3[nH]ccc23)cn1 [Ruxolitinib] + Nc1ncn([C@H]2C[C@H](O)[C@@H](CO)O2)c(=O)n1 [Decitabine] (partner 2 µM)
Outline: (§1)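 Lung cancer cell lines in 1536-well plates got either a single drug or a fixed anchor-drug dose together with five library-drug doses (not always all listed) in √10 steps, by pin tool, on the day after seeding. Nuclei were counted after 5 days, and relative viability is the treated-to-vehicle ratio of nuclei counts. Values are medians of duplicate plates.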

Vismodegib + Phenformin = compound: CS(=O)(=O)c1ccc(C(=O)Nc2ccc(Cl)c(-c3ccccn3)c2)c(Cl)c1 [Vismodegib] + N=C(N)NC(=N)NCCc1ccccc1 [Phenformin] (partner 250 µM)
Outline: as §1

Vismodegib + AZD7762 = compound: CS(=O)(=O)c1ccc(C(=O)Nc2ccc(Cl)c(-c3ccccn3)c2)c(Cl)c1 [Vismodegib] + NC(=O)Nc1cc(-c2cccc(F)c2)sc1C(=O)N[C@H]1CCCNC1 [AZD7762] (partner 0.2 µM)
Outline: as §1

Vismodegib + Dasatinib = compound: CS(=O)(=O)c1ccc(C(=O)Nc2ccc(Cl)c(-c3ccccn3)c2)c(Cl)c1 [Vismodegib] + Cc1nc(Nc2ncc(C(=O)Nc3c(C)cccc3Cl)s2)cc(N2CCN(CCO)CC2)n1 [Dasatinib] (partner 0.075 µM)
Outline: as §1

Row | Cell Line | relative viability (Ruxolitinib + Decitabine; first compound 0.08 µM) | relative viability (Ruxolitinib + Decitabine; first compound 0.253 µM) | relative viability (Ruxolitinib + Decitabine; first compound 0.8 µM) | relative viability (Ruxolitinib + Decitabine; first compound 2.53 µM) | relative viability (Ruxolitinib + Decitabine; first compound 8 µM) | relative viability (Vismodegib + Phenformin; first compound 0.08 µM) | relative viability (Vismodegib + Phenformin; first compound 0.253 µM) | relative viability (Vismodegib + Phenformin; first compound 0.8 µM) | relative viability (Vismodegib + Phenformin; first compound 2.53 µM) | relative viability (Vismodegib + Phenformin; first compound 8 µM) | relative viability (Vismodegib + AZD7762; first compound 0.08 µM) | relative viability (Vismodegib + AZD7762; first compound 0.253 µM) | relative viability (Vismodegib + AZD7762; first compound 0.8 µM) | relative viability (Vismodegib + AZD7762; first compound 2.53 µM) | relative viability (Vismodegib + AZD7762; first compound 8 µM) | relative viability (Vismodegib + Dasatinib; first compound 0.08 µM) | relative viability (Vismodegib + Dasatinib; first compound 0.253 µM) | relative viability (Vismodegib + Dasatinib; first compound 0.8 µM) | relative viability (Vismodegib + Dasatinib; first compound 2.53 µM) | relative viability (Vismodegib + Dasatinib; first compound 8 µM)
1 | LXF-289 | 0.369 | 0.426 | 0.353 | 0.363 | 0.371 | 0.524 | 0.495 | 0.508 | 0.517 | 0.467 | 1.02 | 1.1 | 1.1 | 1.09 | 1.08 | 0.237 | 0.214 | 0.202 | 0.286 | 0.26
2 | NCI-H23 | 0.311 | 0.337 | 0.359 | 0.275 | 0.305 | 0.765 | 0.728 | 0.806 | 0.742 | 0.731 | 0.264 | 0.34 | 0.276 | 0.23 | 0.232 | 0.81 | 0.825 | 0.73 | 0.838 | 0.754
3 | NCI-H322M | 0.718 | 0.702 | 0.744 | 0.693 | 0.889 | 0.798 | 0.771 | 0.783 | 0.729 | 0.756 | 0.598 | 0.503 | 0.603 | 0.507 | 0.548 | 0.244 | 0.25 | 0.243 | 0.245 | 0.255
4 | NCI-H358 | 0.226 | 0.202 | 0.213 | 0.169 | 0.194 | 0.345 | 0.418 | 0.359 | 0.329 | 0.292 | 0.529 | 0.57 | 0.664 | 0.477 | 0.611 | 0.149 | 0.183 | 0.193 | 0.172 | 0.161
5 | NCI-H441 | 0.244 | 0.238 | 0.21 | 0.16 | 0.26 | 0.838 | 0.648 | 0.831 | 0.835 | 0.907 | 1.1 | – | 1.05 | 1.01 | 1.03 | 0.671 | 0.444 | 0.502 | 0.558 | 0.433
6 | NCI-H460 | 0.451 | 0.408 | 0.576 | 0.28 | 0.388 | 0.516 | 0.512 | 0.561 | 0.508 | 0.595 | 0.583 | 0.56 | 0.576 | 0.535 | 0.724 | 0.575 | 0.507 | 0.533 | 0.482 | 0.533
7 | NCI-H522 | 0.694 | 0.695 | 0.669 | 0.701 | 0.654 | 0.643 | 0.618 | 0.673 | 0.657 | 0.632 | 1.06 | 0.875 | 0.849 | 0.81 | 0.857 | 0.915 | 0.888 | 0.883 | 0.793 | 0.879
8 | NCI-H596 | 0.903 | 0.96 | 1.14 | 1.04 | 1.08 | 0.71 | 0.737 | 0.748 | 0.769 | 0.767 | 1.07 | 1.04 | 0.954 | 1.11 | 1.08 | 0.568 | 0.566 | 0.585 | 0.625 | 0.556
9 | NCI-H647 | 0.45 | 0.351 | 0.433 | 0.28 | 0.344 | 0.439 | 0.491 | 0.509 | 0.507 | 0.433 | 0.474 | 0.482 | 0.415 | 0.375 | 0.51 | 0.222 | 0.202 | 0.177 | 0.18 | 0.194
10 | NCI-H650 | 0.364 | 0.38 | 0.28 | 0.342 | 0.332 | 0.469 | 0.417 | 0.45 | 0.418 | 0.393 | 0.958 | 0.925 | 0.864 | 0.953 | 1.06 | 0.507 | 0.43 | 0.358 | 0.438 | 0.441
11 | NCI-H727 | 0.578 | 0.901 | 0.936 | 0.841 | 0.842 | 0.52 | 0.58 | 0.592 | 0.524 | 0.444 | 0.594 | 0.691 | 0.677 | 0.448 | 0.661 | 0.307 | 0.345 | 0.342 | 0.308 | 0.364
12 | NCI-H838 | 0.466 | 0.437 | 0.489 | 0.351 | 0.28 | 0.53 | 0.573 | 0.559 | 0.67 | 0.612 | 0.799 | 0.876 | 0.918 | 0.888 | 0.975 | 0.213 | 0.275 | 0.303 | 0.285 | 0.319
13 | NCI-H1355 | 0.353 | 0.376 | 0.398 | 0.326 | 0.358 | 0.455 | 0.474 | 0.462 | 0.458 | 0.401 | 0.763 | 0.694 | 0.806 | 0.744 | 0.722 | 0.686 | 0.723 | 0.591 | 0.771 | 0.689
14 | NCI-H1395 | 0.698 | 0.697 | 0.77 | 0.69 | 0.686 | 0.345 | 0.397 | 0.411 | 0.439 | 0.485 | 0.42 | 0.397 | 0.412 | 0.455 | 0.41 | 0.385 | 0.389 | 0.398 | 0.417 | 0.414
15 | NCI-H1437 | 0.716 | 0.623 | 0.631 | 0.634 | 0.603 | 0.296 | 0.309 | 0.291 | 0.333 | 0.289 | 1.02 | 1.11 | 1.1 | 1.02 | 1.02 | 0.313 | 0.372 | 0.402 | 0.328 | 0.377
16 | NCI-H1651 | 0.514 | 0.604 | 0.624 | 0.438 | 0.655 | 0.353 | 0.336 | 0.365 | 0.343 | 0.327 | 0.512 | 0.454 | 0.535 | 0.36 | 0.433 | 0.434 | 0.446 | 0.388 | 0.349 | 0.591
17 | NCI-H1666 | 0.601 | 0.666 | 0.753 | 0.678 | 0.721 | 0.557 | 0.587 | 0.535 | 0.517 | 0.565 | 0.878 | 0.772 | 0.882 | 0.751 | 0.827 | 0.73 | 0.777 | 0.816 | 0.841 | 0.734
18 | NCI-H1734 | 0.512 | 0.485 | 0.613 | 0.423 | 0.494 | 0.384 | 0.316 | 0.396 | 0.322 | 0.384 | 0.575 | 0.447 | 0.552 | 0.556 | 0.488 | 0.44 | 0.498 | 0.482 | 0.446 | 0.537
19 | NCI-H1755 | 0.742 | 0.686 | 0.755 | 0.694 | 0.667 | 0.596 | 0.61 | 0.611 | 0.617 | 0.598 | 0.453 | 0.568 | 0.515 | 0.449 | 0.41 | 0.423 | 0.392 | 0.412 | 0.448 | 0.441
20 | NCI-H1792 | 0.516 | 0.544 | 0.602 | 0.425 | 0.476 | – | 0.318 | 0.254 | – | 0.41 | 0.682 | 0.679 | 0.677 | 0.724 | 0.729 | 0.697 | 0.726 | 0.673 | 0.505 | 0.655
21 | NCI-H1793 | 0.436 | 0.502 | 0.488 | 0.392 | 0.413 | – | 0.36 | 0.358 | 0.365 | 0.375 | – | 0.569 | 0.409 | 0.389 | 0.327 | – | 0.408 | 0.374 | 0.416 | 0.365
22 | NCI-H1915 | 0.262 | 0.278 | 0.275 | 0.237 | 0.233 | 0.368 | 0.359 | 0.381 | 0.355 | 0.357 | 0.724 | 0.667 | 0.714 | 0.716 | 0.749 | 0.346 | 0.296 | 0.295 | 0.266 | 0.326
23 | NCI-H1944 | 0.445 | 0.394 | 0.467 | 0.393 | 0.409 | 0.192 | 0.207 | 0.205 | 0.197 | 0.216 | 0.492 | 0.557 | 0.408 | – | 0.505 | 0.228 | 0.213 | 0.201 | 0.242 | 0.204
24 | NCI-H1975 | 0.329 | 0.384 | 0.36 | 0.304 | 0.222 | 0.402 | 0.408 | 0.398 | 0.424 | 0.389 | 0.689 | 0.649 | 0.642 | 0.729 | 0.631 | 0.347 | 0.338 | 0.371 | 0.267 | 0.348
25 | NCI-H1993 | 0.582 | 0.53 | 0.595 | 0.534 | 0.59 | 0.448 | 0.531 | 0.519 | 0.514 | 0.498 | 0.751 | 0.912 | 0.84 | 0.768 | 0.712 | 0.499 | 0.763 | 0.562 | 0.565 | 0.554
26 | NCI-H2085 | 0.598 | 0.531 | 0.624 | 0.515 | 0.496 | 0.698 | 0.749 | 0.714 | 0.718 | 0.697 | 0.972 | 0.972 | 1.11 | 0.997 | 0.914 | 0.26 | 0.244 | 0.22 | 0.217 | 0.213
27 | NCI-H2087 | 0.316 | – | 0.35 | 0.189 | 0.286 | 0.45 | 0.445 | 0.427 | 0.45 | 0.399 | 1.28 | 1.14 | 1.14 | 1.33 | 1.36 | 0.98 | 0.769 | 0.812 | 0.94 | 0.69
